In article PMC12627232 (MedComm, 2025):

Experiments:
HDAC2 = target: T1, HDAC2 (Homo sapiens, UniProt Q92769); test: HDACs enzymatic assay HDAC2; type: biochemical; conditions: Class I; mean ± SD of three
T1 construct: purchased BPS BIOSCIENCE Inc 50052
Experimental: (§1) HDACs enzymatic assays were conducted according to our previous work. […] Substrates (Boc‐Lys(acetyl)‐AMC for HeLa nuclear extract, Ac‐Leu‐Gly‐Lys (Tfa)‐AMC for HDAC4, HDAC5, HDAC6, HDAC7, HDAC9, HDAC10, and HDAC11, Boc‐Lys(triflouroacetyl)‐AMC for HDAC8 and Ac‐Leu‐Gly‐Lys(acetyl)‐AMC for HDAC1, HDAC2, HDAC3) were added to the mixture. The blank group was set to no enzyme or drug but contains substrates and the control group was set to no drug but contains substrates and enzymes to each 96‐well plate. After 30 min of incubation at 37°C, the mixture was terminated with 1 mg/mL trypsin and 3 µM TSA. After another 30 min, the fluorescence intensity was measured using a Varioskan plate reader at 360/460 nm. […] The inhibition curves and IC50 values were simulated and calculated using the log(inhibitor) versus response (three parameters) mode in GraphPad Prism software.

HDAC7 = target: T2, HDAC7 (Homo sapiens, UniProt Q8WUI4); test: HDACs enzymatic assay HDAC7; type: biochemical; conditions: Class IIa
T2 construct: purchased BPS BIOSCIENCE Inc 50007
Experimental: as §1

HDAC10 = target: T3, HDAC10 (Homo sapiens, UniProt Q969S8); test: HDACs enzymatic assay HDAC10; type: biochemical; conditions: Class IIb
T3 construct: purchased BPS BIOSCIENCE Inc 50010
Experimental: as §1

MDA-MB-231 cells = test: Western blotting (immunoblotting); type: cell-based, human; conditions: 24 h
Text: Anti‐H3 (#13998), anticleaved Caspase‐3 (#9661) and anti‐PARP (#9542) antibody was purchased from Cell Signal Technology (CST). Anti‐Caspase‐3 (T40044) was brought from Abmart. Antitubulin antibody (ab179484) was obtained from Abcam PLC. Anti‐Bcl‐2 (F0125) and anti‐Bax (F0037) antibody were purchased from Selleck Chemicals. Anti‐GAPDH antibody (AF1186) was obtained from Beyotime Inc. The protocol of Western blotting was the same as our previous works. In brief, 2.5 × 10^5 MDA‐MB‐231 cells were treated with different drugs or DMSO (equal volume to experimental groups) for 24 h and lysed with modified RIPA buffer. The cell lysates were added to loading buffer (Beyotime #P0015L) and heated in boiling water for 5 mins and then, together with biomarker (Epizymebiotech; 15–250 kDa), were electrophoresed in SDS‐PAGE gels under 80 V voltage until the biomarker reached the end of gels. Next, SDS‐PAGE gels and PVDF membrane were clipped together to perform transmembrane procedure under 350 mA currency for 1 h. Then after incubation with 5% skim milk, TBST, primary antibody and secondary antibody, the PVDF membrane was treated with ECL chemiluminescence solution (Boster Biological Technology #AR1174) and imaged by the imager (Imager 680 Amersham Imager).

T2 sequence (Q8WUI4 whole entry): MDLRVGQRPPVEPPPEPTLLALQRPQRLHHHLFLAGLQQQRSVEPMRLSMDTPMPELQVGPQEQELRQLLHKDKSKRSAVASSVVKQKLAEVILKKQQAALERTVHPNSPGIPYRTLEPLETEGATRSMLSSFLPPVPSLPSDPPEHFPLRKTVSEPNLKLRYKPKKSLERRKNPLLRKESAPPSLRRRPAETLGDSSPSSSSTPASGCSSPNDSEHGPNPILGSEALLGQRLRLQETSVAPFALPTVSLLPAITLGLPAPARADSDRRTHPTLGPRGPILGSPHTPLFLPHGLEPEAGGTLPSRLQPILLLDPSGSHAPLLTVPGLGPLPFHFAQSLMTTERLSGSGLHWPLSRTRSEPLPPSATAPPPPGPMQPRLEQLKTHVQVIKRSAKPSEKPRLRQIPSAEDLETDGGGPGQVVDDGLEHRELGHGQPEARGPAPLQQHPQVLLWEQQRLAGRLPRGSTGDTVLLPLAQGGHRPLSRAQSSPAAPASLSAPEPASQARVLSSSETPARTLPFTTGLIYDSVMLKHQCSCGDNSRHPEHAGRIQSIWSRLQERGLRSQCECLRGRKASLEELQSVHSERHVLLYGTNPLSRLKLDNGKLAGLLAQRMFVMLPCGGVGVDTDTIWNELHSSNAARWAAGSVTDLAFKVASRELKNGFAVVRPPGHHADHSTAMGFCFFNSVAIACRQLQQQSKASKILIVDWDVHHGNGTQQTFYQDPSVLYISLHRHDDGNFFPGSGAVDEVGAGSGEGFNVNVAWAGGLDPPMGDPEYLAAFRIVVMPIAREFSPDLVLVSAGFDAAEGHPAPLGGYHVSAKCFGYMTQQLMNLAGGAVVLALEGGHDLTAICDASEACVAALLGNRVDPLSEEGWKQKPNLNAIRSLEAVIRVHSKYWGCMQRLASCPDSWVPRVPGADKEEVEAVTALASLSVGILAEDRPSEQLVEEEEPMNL
T1 sequence (Q92769 whole entry): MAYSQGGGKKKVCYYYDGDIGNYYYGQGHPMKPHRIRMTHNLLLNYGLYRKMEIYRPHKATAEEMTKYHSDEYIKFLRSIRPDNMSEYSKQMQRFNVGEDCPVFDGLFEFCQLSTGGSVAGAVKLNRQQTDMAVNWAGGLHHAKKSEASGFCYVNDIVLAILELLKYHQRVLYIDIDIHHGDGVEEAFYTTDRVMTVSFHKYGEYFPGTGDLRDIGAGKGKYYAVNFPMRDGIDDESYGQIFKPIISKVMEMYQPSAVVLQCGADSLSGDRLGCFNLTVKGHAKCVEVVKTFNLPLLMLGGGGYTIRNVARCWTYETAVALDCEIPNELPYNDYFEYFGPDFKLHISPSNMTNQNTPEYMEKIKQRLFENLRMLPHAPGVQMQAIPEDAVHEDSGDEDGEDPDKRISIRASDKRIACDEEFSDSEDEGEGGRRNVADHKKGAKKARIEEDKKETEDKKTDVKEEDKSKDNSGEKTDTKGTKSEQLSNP
T3 sequence (Q969S8 whole entry): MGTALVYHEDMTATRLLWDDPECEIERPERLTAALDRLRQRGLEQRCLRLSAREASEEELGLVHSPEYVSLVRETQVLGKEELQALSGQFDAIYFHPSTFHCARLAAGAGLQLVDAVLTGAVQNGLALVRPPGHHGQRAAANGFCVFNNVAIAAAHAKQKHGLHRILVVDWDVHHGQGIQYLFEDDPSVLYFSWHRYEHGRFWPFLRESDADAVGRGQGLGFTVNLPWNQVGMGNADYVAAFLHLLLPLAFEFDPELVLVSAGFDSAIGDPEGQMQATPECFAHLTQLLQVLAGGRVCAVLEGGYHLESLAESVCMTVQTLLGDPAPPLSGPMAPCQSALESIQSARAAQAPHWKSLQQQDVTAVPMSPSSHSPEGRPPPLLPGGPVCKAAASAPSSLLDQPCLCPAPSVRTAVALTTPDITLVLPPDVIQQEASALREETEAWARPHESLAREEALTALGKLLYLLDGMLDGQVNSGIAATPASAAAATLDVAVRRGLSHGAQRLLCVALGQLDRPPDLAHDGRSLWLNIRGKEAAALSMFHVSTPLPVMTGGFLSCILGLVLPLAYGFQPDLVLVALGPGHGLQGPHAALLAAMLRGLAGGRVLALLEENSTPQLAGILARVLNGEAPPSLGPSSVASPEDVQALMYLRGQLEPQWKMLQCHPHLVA

**Q.** Which IC50 (HDAC2) does the source give for `O=C(CCCCCCNC(=O)c1cc(OCCc2ccccc2)c2ccccc2n1)NO` [SDFZ-8] here?
**A.** 0.0058 ± 0.0015 µM

**Q.** What about the IC50 (HDAC7) of the same compound?
**A.** > 10 µM

**Q.** And the IC50 (HDAC10)?
**A.** > 10 µM

**Q.** What about the “antiapoptotic protein Bcl-2 expression” value (MDA-MB-231 cells) of the same compound?
**A.** downregulating

**Q.** And the “levels of cleaved caspase-3 and cleaved PARP” value (MDA-MB-231 cells)?
**A.** increase

**Q.** And the “proapoptotic protein Bax expression” value (MDA-MB-231 cells)?
**A.** upregulated

**Q.** And the “level of acetylated histone H3 (Ac-H3)” value (MDA-MB-231 cells; western blotting)?
**A.** upregulation

**Q.** What about the “level of acetylated tubulin (Ac-tubulin)” value (MDA-MB-231 cells; western blotting) of the same compound?
**A.** upregulation
